For one data set, the target named is T1, αvβ3 receptor (Homo sapiens, UniProt P05106+P06756).
T1 construct: αvβ3 from human A375 cells was purified analogously to a procedure described by Wong et al; endogenous in cells; host or cells: human A375 cells (receptor purified from the cells)
Kind of data set: αvβ3 binding test (echistatin SPA). As for the experimental part: αvβ3 from human A375 cells was purified analogously to a procedure described by Wong et al. in Molecular Pharmacology 50, 529-537 (1996). In each case, 10 μL of αvβ3 (5 ng) in TBS PH 7.6, 2 mM CaCl2. 1 mM MgCl2. 1% n-octylglucopyranoside (Sigma): 10 μL of test substance in TBS pH 7.6. 0.1% DMSO and 45 μL of TBS pH 7.6. 2 mM CaCl2, 1 mM MgCl2, 1 mM MnCl2 were incubated at room temperature for 1 h. In each case, 25 μL of WGA SPA beads (Amersham, 4 mg/ml) and 10 μL of echistatin (0.1 μCi, Amersham, chloramine-T labelled) were then added. After 16 h at room temperature, the samples were measured in a scintillation measuring apparatus (Wallac 1450).

The next data set deals with 786-O cell line. Kind of data set: Cytotoxicity in vitro (MTT) in the presence and absence of elastase, 786-O. The data set is classed as cell-based. As for the experimental part:
(§1) Cultivation of cells was performed according to standard procedures with the media recommended by the provider. The cells in a total volume of 100 μL were seeded in a 96-well plate with white bottom (#3610). After a 24 h incubation period at 37° C. and 5% CO2, the medium was changed by adding 90 μL fresh medium. The treatment starts by adding the test compound to the cells in 10 μl of culture medium. Concentrations from 10^−5 M to 10^−13 M in triplicates were chosen followed by an incubation at 37° C. and 5% carbon dioxide. One set of samples were only treated with the test compound whereas to an otherwise identically treated second set of samples also 10 nM elastase was pipetted. After 72 h. the proliferation is detected using the MTT assay (ATCC). At the end of the incubation period the MTT reagent is added to all samples for 4 h, followed by lysis of the cells overnight by addition of the detergent. The dye formed was detected at 570 nm. The proliferation of cells which were not treated with test substance but were otherwise identically treated was defined as the 100% value. (FIG. 1 and table 4).

The test system of a further data set is HT29 cell line. Nature of the data set: Cytotoxicity in vitro (MTT) in the presence and absence of elastase, HT29. The format is cell-based. The settings on record: 72 h. The procedure:
as §1

The next data set in a line: Solubility in vehicles. The data set is classed as physicochemical. The settings on record: room temperature (25° C.). As for the experimental part:
Method: For each vehicle to be tested. 0.5-1.0 mg test compound were weighed into a 2 ml Eppendorf vial. 2-3 Glas perls (Ø 3 mm) and 1.0 ml vehicle were added. The vial was shaken at 1400 rpm for 24 hrs at room temperature (25° C.). After this time period the supernatant (approx. 230 μl was transferred to a centrifuge tube. After 30 min at 42 000 rpm the solute was transferred to another vial and diluted with DMSO (1:5 and 1:50). These two dilutions were analyzed by HPLC (read out: area)
• Eluent A: 1 ml Trifluoro acetic acid/L water • Eluent B: 1 ml Trifluoro acetic acid/L acetonitrile • Gradient:
• Column: ZORBAX Extend-C18, 3.0×50 mm, 3, 5 μm • Oven temperature: 30° C. • Detection: 214 and 254 nm • Injection volume: 20 μl
For quantification a calibration curve was obtained from DMSO solution of the test compound ([…], 20 μg/ml and 2.5 μg/ml) by employing the same HPLC method.

Data set [1] in a line: Stability in citric acid buffer at pH 4. The format is physicochemical. The settings on record: 37° C., peak area. The procedure: Method: 0.15 mg of the test compound were solved in 0.1 ml dimethylsulfoxide and 0.4 ml acetonitrile. For complete dissolution the HPLC vial with the sample solution was shaken and sonicated. Then 1.0 ml of the respective buffer solution (Citrate buffer pH 4; citric acid/sodium hydroxide/sodium chloride Fluka 33643) was added and the sample was vortexed. The sample solution was analysed by HPLC to determine the amount of the test compound and up to two byproducts at a particular time (0, 1, 2 4, 24 hrs) over a period of 24 h at 37° C. t(0) values resulted from a sample immediately taken after vortexing with buffer at RT. The peak areas (in percentage) were used for quantification.
LC & LC/MS purity analysis: The starting material was analyzed for purity by LC; the 24 h sample was additionally analyzed by LC/MS (Waters Quattro Micro).

Data set [2] can be described thus: Plasma stability in rat plasma. The settings on record: 37° C. The data set is classed as in vitro ADME. The procedure:
For complete dissolution the HPLC vial was shaken and treated with ultrasound. 500 μl of this solution were added to 0.5 mL of rat plasma with vortexing at a temperature of 37° C. Aliquots (10 μL each) were taken at respective time points and analyzed by HPLC to determine the amount of the test compound. All data is given as percent area of the initial compound at t0.

Data set [3] concerns MX1 xenograft (breast cancer). Kind of data set: In vivo xenotransplantation study, MX1. On the set-up: species or system mice. The settings on record: MX1, 36 mg/kg i.v., 3 days on, 4 days off, 3 cycles; mean tumor area. The procedure:
(§2) For this purpose, immunocompromised mice were implanted subcutaneously with tumor cells or tumor fragments. […] Intravenous treatments were performed on three consecutive days once daily followed by four days drug holiday without treatments. The tumor size and the body weight were determined at least weekly. The tumor area was detected by means of an electronic caliper [length (mm)×width (mm)]. The experimental groups were ended when the group reached the pre-determined ethical endpoint based on German and European animal welfare regulations. In vivo anti-tumor efficacy is presented as T/C ratio of mean tumor area measured for treatment and control group on the last day at which the vehicle control remained in study (Treatment/Control; mean tumor area of treatment group/mean tumor area of control group. A compound having a T/C below 0.5 is defined as active (i.e., effective). Statistical analysis was assessed using SigmaStat software. A one-way analysis of variance was performed and differences to the control were compared by a pair-wise comparison procedure (Dunn's method).

In data set [4] the test system is SW-480 xenograft (colon cancer). Nature of the data set: In vivo xenotransplantation study, SW-480. Further details: species or system mice. The settings on record: SW-480, 36 mg/kg i.v., 3 days on, 4 days off, 3 cycles; mean tumor area. The procedure:
as §2

Data set [5] has as its system NCI-H69 xenograft (lung cancer). Kind of data set: In vivo xenotransplantation study, NCI-H69. The settings on record: NCI-H69, 40 mg/kg i.v., 3 days on, 4 days off, 3 cycles; mean tumor area. Further details: species or system mice. As for the experimental part: as §2
Data set [6] relates to 786-O xenograft (renal cancer). Kind of data set: In vivo xenotransplantation study, 786-O. On the set-up: species or system mice. The settings on record: 36 mg/kg i.v., 3 days on, 4 days off, 3 cycles, mean tumor area. The procedure: as §2

Experimental findings from patent US20240325553A1, “CYTOSTATIC CONJUGATES WITH INTEGRIN LIGANDS” (priority 2018, published 2024) are described below.

Each structure is given as a SMILES string. Read-outs that look alike come from different tables or passages of the source. Marks after values point to notes of the source that are not given here.

T1 sequence (P06756 31-889 limits assumed): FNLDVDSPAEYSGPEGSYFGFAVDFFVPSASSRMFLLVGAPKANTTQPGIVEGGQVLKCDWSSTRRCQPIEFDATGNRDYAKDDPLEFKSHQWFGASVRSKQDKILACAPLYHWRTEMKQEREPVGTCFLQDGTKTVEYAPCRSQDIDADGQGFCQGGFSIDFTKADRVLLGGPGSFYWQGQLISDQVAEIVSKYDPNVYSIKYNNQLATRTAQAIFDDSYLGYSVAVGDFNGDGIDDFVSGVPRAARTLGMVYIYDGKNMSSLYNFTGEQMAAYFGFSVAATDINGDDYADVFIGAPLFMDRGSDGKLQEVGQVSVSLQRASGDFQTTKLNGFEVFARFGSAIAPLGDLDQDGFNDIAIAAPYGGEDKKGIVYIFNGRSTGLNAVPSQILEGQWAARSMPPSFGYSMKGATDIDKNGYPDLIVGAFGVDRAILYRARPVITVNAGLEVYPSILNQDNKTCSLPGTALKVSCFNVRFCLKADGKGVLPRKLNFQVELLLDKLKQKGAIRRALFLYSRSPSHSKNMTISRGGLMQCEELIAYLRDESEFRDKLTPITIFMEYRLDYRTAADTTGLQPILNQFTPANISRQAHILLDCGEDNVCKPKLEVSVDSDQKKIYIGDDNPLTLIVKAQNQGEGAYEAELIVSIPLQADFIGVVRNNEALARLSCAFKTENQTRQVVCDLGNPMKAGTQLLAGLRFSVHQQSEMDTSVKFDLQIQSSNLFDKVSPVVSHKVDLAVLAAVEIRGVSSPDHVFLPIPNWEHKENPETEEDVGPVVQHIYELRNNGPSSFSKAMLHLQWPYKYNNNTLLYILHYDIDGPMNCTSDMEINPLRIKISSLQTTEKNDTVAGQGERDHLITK
T1 sequence (P06756 891-1048 partner limits assumed): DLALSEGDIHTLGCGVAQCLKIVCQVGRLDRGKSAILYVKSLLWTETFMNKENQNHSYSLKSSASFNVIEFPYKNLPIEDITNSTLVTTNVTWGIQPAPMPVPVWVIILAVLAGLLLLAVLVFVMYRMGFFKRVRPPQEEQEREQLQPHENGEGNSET
T1 sequence (P05106 27-788): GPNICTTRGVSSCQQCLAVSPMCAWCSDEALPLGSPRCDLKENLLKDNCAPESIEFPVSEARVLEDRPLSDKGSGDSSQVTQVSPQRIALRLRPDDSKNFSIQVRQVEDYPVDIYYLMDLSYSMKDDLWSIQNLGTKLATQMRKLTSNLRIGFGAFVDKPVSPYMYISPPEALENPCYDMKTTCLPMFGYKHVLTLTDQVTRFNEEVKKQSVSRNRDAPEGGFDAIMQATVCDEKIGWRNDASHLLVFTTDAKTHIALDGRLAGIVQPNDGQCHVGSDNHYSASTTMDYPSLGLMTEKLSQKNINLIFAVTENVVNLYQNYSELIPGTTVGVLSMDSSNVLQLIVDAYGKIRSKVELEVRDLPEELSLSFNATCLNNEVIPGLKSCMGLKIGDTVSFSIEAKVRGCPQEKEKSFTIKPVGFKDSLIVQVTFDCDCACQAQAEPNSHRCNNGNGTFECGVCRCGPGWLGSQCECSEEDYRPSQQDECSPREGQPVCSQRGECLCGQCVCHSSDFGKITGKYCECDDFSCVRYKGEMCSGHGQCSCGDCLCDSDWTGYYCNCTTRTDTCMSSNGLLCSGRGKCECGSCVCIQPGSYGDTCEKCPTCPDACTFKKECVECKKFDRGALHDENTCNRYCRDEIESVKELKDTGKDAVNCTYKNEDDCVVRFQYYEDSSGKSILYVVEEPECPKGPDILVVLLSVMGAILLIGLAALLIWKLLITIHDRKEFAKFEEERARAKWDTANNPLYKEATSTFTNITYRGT

What is called solubility is how much of the substance goes into solution per volume. For `CCCNC(=O)Nc1cccc(S(=O)(=O)Nc2cccc([C@@H](CC(=O)[O-])NC(=O)Nc3ccc(NC(=O)NCCOCCOCCOCCC(=O)N[C@@H](CC(=O)[O-])C(=O)N4CCC[C@H]4C(=O)N[C@H](C(=O)O[C@]4(CC)C(=O)OCc5c4cc4n(c5=O)Cc5c-4nc4ccccc4c5CC)C(C)C)cc3)c2)c1.[Na+].[Na+]` [Example 1, disodium (4S)-4,11-diethyl-3,14-dioxo-3,4,12,14-tetrahydro-1H-pyrano[3′,4′: 6,7]indolizino [1,2-b]quinolin-4-yl 1-{(2S)-2-(carboxylatomethyl)-17-[4-({[(1R)-2-carboxylato-1-{3-[({3-[(propyl-carbamoyl)amino]phenyl}sulfonyl)amino]phenyl}ethyl]carbamoyl}amino)anilino]-4,17-dioxo-7,10,13-trioxa-3,16-diazaheptadecan-1-oyl}-L-prolyl-L-valinate], the IC50 on αvβ3 receptor is 29 nM; in the data set on 786-O cell line (72 h, MTT, 10 nM elastase, read-out: 786-O cell line IC50 w elastase), 1.1 nM; in the data set on 786-O cell line (72 h, MTT, without elastase, read-out: 786-O cell line IC50 w/o elastase) it was 188 nM; in the data set on 786-O cell line (side by side comparison, elastase with higher enzymatic activity used, read-out: 786-O cell line IC50 w elastase), 0.17 nM; in the data set on 786-O cell line (side by side comparison, without elastase, read-out: 786-O cell line IC50 w/o elastase) it was 28 nM; in the data set with HT29 cell line (10 nM elastase, read-out: HT29 cell line IC50 w elastase), 8.7 nM. Also, in the data set with HT29 cell line (without elastase, read-out: HT29 cell line IC50 w/o elastase), the IC50 came to 245 nM. The compound also gave a Specificity factor with 786-O cell line (786-O, IC50 w/o elastase versus w elastase) of 165. For the same compound, the solubility at 24 h in “Solubility in vehicles” (read-out: Solubility in 0.9% NaCl in H2O) was 465 µg/mL; in the data set “Solubility in vehicles” (read-out: Solubility in 5% D-Mannitol), more than 500 µg/mL. Moreover, the “Stability in citric acid buffer at pH 4, 4h” value in [1] (4 h) is listed as 100%. The “Stability in citric acid buffer at pH 4, 24h” value in data set [1] (24 h) is on record as 95%. The “stable in rat plasma for” value in [2] was more than 24 h. Also, the T/C is 0.03* in [3], 0.1* in data set [4], 0.06* in [5] and 0.19* in data set [6].
